In patent publication US20220401383A1 (SHINKEI THERAPEUTICS, INC., priority 2019, published 2022):
Where two headings read alike, the source gives them in different places.

Key:
[1] = test system: CBD metabolism in human liver microsomes (CYP3A4 and CYP2C19); experiment: in vitro
[2] = test system: CBD metabolism in human liver microsomes; experiment: Example 1: inhibition of CBD metabolism in pooled human liver microsomes; conditions: for Inhibition of CBD metabolism (in words): human liver microsomes; for IC50: read-out: HLM CYP inhibition IC50, substrate CBD, pooled HLM 0.1 mg/mL, CBD 1.64 μM, 15 minutes, n = 1
[3] = test system: Maximum Electroconvulsive Shock (MES) model; conditions: MES model in mouse; cited from earlier work
[4] = cited from earlier work
[5] = target: T1, CYP2C8 (Homo sapiens, UniProt P10632); conditions: cited from earlier work
T1 sequence (P10632 1-490): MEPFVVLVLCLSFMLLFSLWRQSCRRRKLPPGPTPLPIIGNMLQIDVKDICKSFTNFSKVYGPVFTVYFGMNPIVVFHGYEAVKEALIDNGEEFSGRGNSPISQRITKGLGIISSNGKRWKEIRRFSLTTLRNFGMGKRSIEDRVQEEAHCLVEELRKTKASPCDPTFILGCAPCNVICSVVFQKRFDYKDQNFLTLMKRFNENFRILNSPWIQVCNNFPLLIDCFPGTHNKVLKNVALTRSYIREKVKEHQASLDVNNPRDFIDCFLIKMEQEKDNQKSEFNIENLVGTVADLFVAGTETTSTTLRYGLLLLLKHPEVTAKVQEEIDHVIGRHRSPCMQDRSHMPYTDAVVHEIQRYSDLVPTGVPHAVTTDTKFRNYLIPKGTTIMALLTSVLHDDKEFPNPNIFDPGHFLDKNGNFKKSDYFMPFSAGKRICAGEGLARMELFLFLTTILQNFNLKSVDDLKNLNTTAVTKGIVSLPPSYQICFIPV

[6] = target: CYP2D6 (Homo sapiens, UniProt P10635); experiment: biochemical
Sequence of CYP2D6 (P10635 whole entry): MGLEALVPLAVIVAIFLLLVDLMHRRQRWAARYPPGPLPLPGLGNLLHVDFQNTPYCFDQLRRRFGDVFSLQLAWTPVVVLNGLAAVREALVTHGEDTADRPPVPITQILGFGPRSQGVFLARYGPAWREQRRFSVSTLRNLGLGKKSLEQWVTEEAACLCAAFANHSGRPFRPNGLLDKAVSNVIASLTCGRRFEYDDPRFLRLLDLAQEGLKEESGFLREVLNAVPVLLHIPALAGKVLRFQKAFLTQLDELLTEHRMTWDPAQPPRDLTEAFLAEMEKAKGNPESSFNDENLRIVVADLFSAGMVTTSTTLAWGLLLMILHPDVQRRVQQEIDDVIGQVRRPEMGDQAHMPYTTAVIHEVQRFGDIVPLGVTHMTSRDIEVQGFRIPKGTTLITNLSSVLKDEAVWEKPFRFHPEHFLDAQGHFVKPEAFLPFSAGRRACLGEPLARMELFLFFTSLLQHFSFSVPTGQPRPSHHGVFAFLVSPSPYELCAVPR
Protocol: Incubation mixtures were prepared with the following:
(a) potassium phosphate buffer;
(b) 0.1 mg/mL microsomal protein;
(c) isoform-specific probe substrates;
(d) specific concentrations of the test compounds, blank solvent, or positive controls (isoform-specific inhibitors); and
(e) an NADPH-regenerating cofactor solution.
Upon completion of the incubation, the reactions were quenched with an acetonitrile solution containing an internal standard. The samples were processed and analyzed by LC-MS/MS to monitor for substrate metabolite formation. The enzyme activity in the presence of the compounds were normalized with the enzyme activity in the absence of the compounds and expressed as a percentage of activity. The inhibitory potential (IC50) of the compounds were determined using nonlinear regression of percentage of activity versus compound concentration.

[7] = target: T2, CYP1A2 (Homo sapiens, UniProt P05177); conditions: cited from earlier work
T2 sequence (P05177 1-516): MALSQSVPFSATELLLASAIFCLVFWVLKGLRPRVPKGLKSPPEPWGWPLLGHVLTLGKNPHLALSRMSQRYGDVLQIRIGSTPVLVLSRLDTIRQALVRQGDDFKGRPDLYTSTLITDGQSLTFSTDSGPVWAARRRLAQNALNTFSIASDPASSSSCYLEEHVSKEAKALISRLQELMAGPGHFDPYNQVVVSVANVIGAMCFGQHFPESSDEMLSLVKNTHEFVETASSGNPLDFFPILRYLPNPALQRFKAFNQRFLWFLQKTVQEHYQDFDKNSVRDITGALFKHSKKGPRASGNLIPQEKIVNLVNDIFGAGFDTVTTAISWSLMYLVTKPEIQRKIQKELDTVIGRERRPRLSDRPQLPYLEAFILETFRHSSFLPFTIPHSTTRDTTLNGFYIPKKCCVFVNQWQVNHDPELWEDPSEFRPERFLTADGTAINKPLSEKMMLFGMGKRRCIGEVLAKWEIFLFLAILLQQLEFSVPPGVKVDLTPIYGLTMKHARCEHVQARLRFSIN

[8] = target: T3, CYP2C19 (Homo sapiens, UniProt P33261)
T3 sequence (P33261 whole entry): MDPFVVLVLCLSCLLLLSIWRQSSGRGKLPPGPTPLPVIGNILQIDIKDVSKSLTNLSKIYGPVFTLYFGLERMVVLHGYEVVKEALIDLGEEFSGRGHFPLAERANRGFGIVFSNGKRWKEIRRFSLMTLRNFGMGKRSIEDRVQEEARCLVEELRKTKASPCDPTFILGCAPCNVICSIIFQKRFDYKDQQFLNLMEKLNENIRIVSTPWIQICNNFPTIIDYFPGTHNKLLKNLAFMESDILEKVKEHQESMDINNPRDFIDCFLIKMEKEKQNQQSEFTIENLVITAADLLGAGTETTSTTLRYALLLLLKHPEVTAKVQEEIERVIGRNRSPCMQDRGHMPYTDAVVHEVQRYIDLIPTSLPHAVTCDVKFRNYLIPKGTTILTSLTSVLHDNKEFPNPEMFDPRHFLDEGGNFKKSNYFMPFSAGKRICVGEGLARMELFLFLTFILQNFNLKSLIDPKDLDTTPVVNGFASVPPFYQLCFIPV

[9] = target: T3, CYP2C19; conditions: cited from earlier work
[10] = Clinical pharmacokinetics (literature data); conditions: human, in vivo, oral
[11] = cited from earlier work; remark: listed apart in the source

SMILES: Cc1c(OCC(F)(F)F)ccnc1C[S+]([O-])c1nc2ccccc2[nH]1 (stereo not drawn) [Lansoprazole]
- IC50 at 15 min [1]: 20 µM
- Inhibition of CBD metabolism (in words) [2]: effective inhibitors of CBD metabolism

SMILES: C/C(=C\COc1c2ccoc2cc2oc(=O)ccc12)CCC(O)C(C)(C)O (stereo not drawn) [6,7-dihydroxybergamottin]
- Inhibition of CBD metabolism (in words) [2]: effective inhibitors of CBD metabolism
- IC50 [2]: 23.3 µM

SMILES: COc1ccc2[nH]c(S(=O)(=O)Cc3ncc(C)c(OC)c3C)nc2c1 [Omeprazole Sulphone]
- IC50 [2]: > 33 µM

SMILES: CC(C)=CCC/C(C)=C/COc1c2ccoc2cc2oc(=O)ccc12 [Bergamottin]
- IC50 at 15 min [1]: > 33 µM

SMILES: C=C(C)[C@@H]1CCC(CO)=C[C@H]1c1c(O)cc(CCCCC)cc1O [7-OH-CBD]
- Anticonvulsant effect [3]: anticonvulsant effect similar to CBD

SMILES: C=C(C)[C@@H]1CCC(C(=O)O)=C[C@H]1c1c(O)cc(CCCCC)cc1O [7-COOH-CBD]
- Anticonvulsant effect [3]: inactive
- Concentration of metabolite relative to CBD ([4]; after 1500 mg CBD dose): 47 fold
- Share of the total drug material measured in systemic circulation ([4]; after 1500 mg CBD dose): 97%

SMILES: COc1ccc2[nH]c([S+]([O-])Cc3ncc(C)c(OC)c3C)nc2c1 (stereo not drawn) [Omeprazole]
- IC50 at 15 min [1]: > 33 µM

SMILES: CNCCC(Oc1ccc(C(F)(F)F)cc1)c1ccccc1 (stereo not drawn) [Fluoxetine]
- IC50 at 15 min [1]: > 33 µM
- Inhibition of CBD metabolism (in words) [2]: unable to inhibit metabolism of CBD

SMILES: CC(C)c1nc(CN(C)C(=O)N[C@@H](CCN2CCOCC2)C(=O)N[C@H](CC[C@H](Cc2ccccc2)NC(=O)OCc2cncs2)Cc2ccccc2)cs1 [Cobicistat]
- IC50 [5]: > 25 µM
- IC50 [6]: 479 nM
- IC50 [7]: > 25 µM
- Inhibition of CBD metabolism (in words) [2]: strong inhibitor of CBD metabolism
- IC50 [8]: 331 nM
- IC50 [9]: > 25 µM

SMILES: C=C(C)[C@@H]1CCC(C)=C[C@H]1c1c(O)cc(CCCCC)cc1O [CBD, cannabidiol]
- Share of the total drug material measured in systemic circulation ([4]; after 1500 mg CBD dose): 2%
- CBD AUC ([4]; single dose 200 mg): 499 ng·h/mL
- CBD AUC ([4]; single dose 750 mg): 1070 ng·h/mL
- CBD AUC ([4]; single dose 1500 mg): 1444 ng·h/mL
- CBD AUC ([4]; single dose 3000 mg): 2669 ng·h/mL
- CBD AUC ([4]; single dose 4500 mg): 3215 ng·h/mL
- CBD AUC ([4]; single dose 6000 mg): 3696 ng·h/mL
- bioavailability ([10]; 200 mg): 100%
- bioavailability ([10]; 750 mg): 57%
- bioavailability ([10]; 1500 mg): 39%
- bioavailability ([10]; 3000 mg): 36%
- bioavailability ([10]; 4500 mg): 29%
- bioavailability ([10]; 6000 mg): 25%
- Log P (partition coefficient) [11]: 6.1
